Oligonucleotides are written 5' to 3', each unit as a sugar letter and its base; * is a phosphorothioate linkage, no mark a phosphodiester; rarer units and linkages stand in square brackets, end groups in braces. Plain capitals give the bases only. e = 2'-O-(2-methoxyethyl) (MOE); [5mC] = 5-methylcytosine; d = 2'-deoxy (DNA)
Test system: murine TTC39B mRNA
Assay: Antisense inhibition of murine TTC39B in mouse primary hepatocytes, single dose
Type: cell-based
Conditions: 100 nM, cytofectin, ~24 h, vs untreated control
Procedure: Antisense oligonucleotides targeted to a TTC39B nucleic acid were tested for their effects on TTC39B mRNA in vitro. Cultured mouse primary hepatocytes at a density of 10,000 cells per well were transfected using cytofectin reagent with 100 nM antisense oligonucleotide. After a treatment period of approximately 24 hours, RNA was isolated from the cells and TTC39B mRNA levels were measured by quantitative real-time PCR. TTC39B mRNA levels were adjusted according to total RNA content, as measured by RIBOGREEN®. Results are presented as percent inhibition of TTC39B, relative to untreated control cells.
The chimeric antisense oligonucleotides in Tables 1 and 2 were designed as 5-10-5 MOE gapmers. The gapmers are 20 nucleotides in length, wherein the central gap segment is comprised of 10 2′-deoxynucleotides and is flanked on both sides (in the 5′ and 3′ directions) by wings comprising 5 nucleotides each. Each nucleotide in the 5′ wing segment and each nucleotide in the 3′ wing segment has a 2′-MOE modification. The internucleoside linkages throughout each gapmer are phosphorothioate (P═S) linkages. All cytosine residues throughout each gapmer are 5-methylcytosines. “Target start site” indicates the 5′-most nucleotide to which the gapmer is targeted. “Target stop site” indicates the 3′-most nucleotide to which the gapmer is targeted. Each gapmer listed in Table 1 is targeted to SEQ ID NO: 6 (GENBANK Accession No. NM_027238.2) and each gapmer listed in Table 2 is targeted to SEQ ID NO: 10 (the complement of GENBANK Accession No. NT—039260.7 truncated at nucleotides 22491001 to 22601000), SEQ ID NO: 11 (GENBANK Accession No. BY244623.1), SEQ ID NO: 12 (GENBANK Accession No. BY260936), SEQ ID NO: 13 (GENBANK Accession No. BM935568.1) or SEQ ID NO: 14 (GENBANK Accession No. BY728780.1).

[1] = gapmers targeted to SEQ ID NO: 6
[2] = gapmers targeted to SEQ ID NO: 10-14

| Sequence | % inhibition of murine TTC39B mRNA [1] | % inhibition of murine TTC39B mRNA [2] |
| --- | --- | --- |
| GAGTACATTCAAATACAGGA (antisense eG*eA*eG*eT*eA*d[5mC]*dA*dT*dT*d[5mC]*dA*dA*dA*dT*dA*e[5mC]*eA*eG*eG*eA) [ISIS 447139] | 58% | – |
| TATGGAGAAGCAGATGGCCT (eT*eA*eT*eG*eG*dA*dG*dA*dA*dG*d[5mC]*dA*dG*dA*dT*eG*eG*e[5mC]*e[5mC]*eT; antisense) [ISIS 447175] | – | 56% |
| AGCATCAAATTAAAGGCCCC (antisense eA*eG*e[5mC]*eA*eT*d[5mC]*dA*dA*dA*dT*dT*dA*dA*dA*dG*eG*e[5mC]*e[5mC]*e[5mC]*e[5mC]) [ISIS 447113] | 59% | – |
| TGTTTCCAGAAAATCCAATA (antisense eT*eG*eT*eT*eT*d[5mC]*d[5mC]*dA*dG*dA*dA*dA*dA*dT*d[5mC]*e[5mC]*eA*eA*eT*eA) [ISIS 447115] | 56% | – |
| TCCAAGGCATCTTCAAAGAT (antisense eT*e[5mC]*e[5mC]*eA*eA*dG*dG*d[5mC]*dA*dT*d[5mC]*dT*dT*d[5mC]*dA*eA*eA*eG*eA*eT) [ISIS 447101] | 36% | – |
| TTCTTACAAACATCCTAAGA (antisense eT*eT*e[5mC]*eT*eT*dA*d[5mC]*dA*dA*dA*d[5mC]*dA*dT*d[5mC]*d[5mC]*eT*eA*eA*eG*eA) [ISIS 447148] | 54% | – |
| ACAAAGTGAAAGCCGCTGGT (antisense eA*e[5mC]*eA*eA*eA*dG*dT*dG*dA*dA*dA*dG*d[5mC]*d[5mC]*dG*e[5mC]*eT*eG*eG*eT) [ISIS 447103] | 64% | – |
| TAGTAATACGCCTGCATCCA (antisense eT*eA*eG*eT*eA*dA*dT*dA*d[5mC]*dG*d[5mC]*d[5mC]*dT*dG*d[5mC]*eA*eT*e[5mC]*e[5mC]*eA) [ISIS 447121] | 53% | – |
| CCCCGTTCCAAGCTTGACTC (antisense e[5mC]*e[5mC]*e[5mC]*e[5mC]*eG*dT*dT*d[5mC]*d[5mC]*dA*dA*dG*d[5mC]*dT*dT*eG*eA*e[5mC]*eT*e[5mC]) [ISIS 447112] | 62% | – |
| AGATACAAGTCCCTTCTGCC (antisense eA*eG*eA*eT*eA*d[5mC]*dA*dA*dG*dT*d[5mC]*d[5mC]*d[5mC]*dT*dT*e[5mC]*eT*eG*e[5mC]*e[5mC]) [ISIS 447137] | 50% | – |
| TCCAGATCATTATGTTTACA (eT*e[5mC]*e[5mC]*eA*eG*dA*dT*d[5mC]*dA*dT*dT*dA*dT*dG*dT*eT*eT*eA*e[5mC]*eA; antisense) [ISIS 447174] | – | 50% |
| GGCTCTGGGTTCAGCCCAGC (antisense eG*eG*e[5mC]*eT*e[5mC]*dT*dG*dG*dG*dT*dT*d[5mC]*dA*dG*d[5mC]*e[5mC]*e[5mC]*eA*eG*e[5mC]) [ISIS 447098] | 44% | – |
| ACAGTATCTTGAACATGACA (antisense eA*e[5mC]*eA*eG*eT*dA*dT*d[5mC]*dT*dT*dG*dA*dA*d[5mC]*dA*eT*eG*eA*e[5mC]*eA) [ISIS 447147] | 46% | – |
| CCTTACCAAATTAAAGGCCC (antisense e[5mC]*e[5mC]*eT*eT*eA*d[5mC]*d[5mC]*dA*dA*dA*dT*dT*dA*dA*dA*eG*eG*e[5mC]*e[5mC]*e[5mC]) [ISIS 447171] | – | 23% |
| GTCCGATGGAGATCTAGAGA (antisense eG*eT*e[5mC]*e[5mC]*eG*dA*dT*dG*dG*dA*dG*dA*dT*d[5mC]*dT*eA*eG*eA*eG*eA) [ISIS 447102] | 84% | – |
| GGAGATGTGTGTACGGCAGC (antisense eG*eG*eA*eG*eA*dT*dG*dT*dG*dT*dG*dT*dA*d[5mC]*dG*eG*e[5mC]*eA*eG*e[5mC]) [ISIS 447161] | – | 14% |
